Data on nine compounds can be found in ChEMBL document CHEMBL1130366, “Search for surrogates: A study of endothelin receptor antagonist structure activity relationships” (Bioorg Med Chem Lett, 1997).

In assay [1] the target is T1, Endothelin receptor type B (Homo sapiens, UniProt P24530).
T1 sequence (P24530 whole entry): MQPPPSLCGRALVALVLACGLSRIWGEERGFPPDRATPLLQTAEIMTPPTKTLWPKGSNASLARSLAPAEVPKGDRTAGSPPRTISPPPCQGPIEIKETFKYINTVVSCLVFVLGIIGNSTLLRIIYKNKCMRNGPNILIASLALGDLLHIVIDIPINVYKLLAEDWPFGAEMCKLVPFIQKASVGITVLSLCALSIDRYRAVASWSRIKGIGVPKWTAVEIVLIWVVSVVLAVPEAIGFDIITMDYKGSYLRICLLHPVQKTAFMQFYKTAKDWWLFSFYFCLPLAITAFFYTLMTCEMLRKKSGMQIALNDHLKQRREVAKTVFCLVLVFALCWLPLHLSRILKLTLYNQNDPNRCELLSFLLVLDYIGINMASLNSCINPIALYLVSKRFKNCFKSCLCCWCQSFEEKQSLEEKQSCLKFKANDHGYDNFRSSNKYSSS
Description: Inhibition of I-ET-1 binding to human Endothelin B receptor.

For another assay, the target named is T2, Endothelin-1 receptor (Homo sapiens, UniProt P25101).
T2 sequence (P25101 whole entry): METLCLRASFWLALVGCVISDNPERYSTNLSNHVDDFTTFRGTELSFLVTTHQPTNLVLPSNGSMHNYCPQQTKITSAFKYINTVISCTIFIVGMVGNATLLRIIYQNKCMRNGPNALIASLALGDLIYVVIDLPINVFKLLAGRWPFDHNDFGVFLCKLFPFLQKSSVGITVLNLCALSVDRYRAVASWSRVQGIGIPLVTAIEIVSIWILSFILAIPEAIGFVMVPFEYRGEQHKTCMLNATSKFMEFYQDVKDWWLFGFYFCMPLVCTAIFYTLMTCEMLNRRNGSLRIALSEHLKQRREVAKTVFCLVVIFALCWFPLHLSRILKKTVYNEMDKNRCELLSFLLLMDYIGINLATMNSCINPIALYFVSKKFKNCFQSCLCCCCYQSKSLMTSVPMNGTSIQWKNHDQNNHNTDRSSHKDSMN
The assay is described as follows: Inhibition of I-ET-1 binding to human Endothelin A receptor.

As for `Cc1ccc(OCc2sccc2S(=O)(=O)Nc2onc(C)c2Br)cc1`, the IC50 in assay [1] stood at 15.6 µM.

With `CCCc1cc2c(cc1OCc1sccc1S(=O)(=O)Nc1onc(C)c1Br)OCO2`, the 50% inhibitory concentration (IC50) on Endothelin-1 receptor amounted to 0.104 µM; in assay [1], 0.335 µM.

For the compound `Cc1noc(NS(=O)(=O)c2sccc2COc2ccc3c(c2)OCO3)c1Br`, the IC50 was 0.513 µM at Endothelin-1 receptor and 9.55 µM in assay [1].

Turning to `Cc1ccc(OCc2ccsc2S(=O)(=O)Nc2onc(C)c2Br)c(C)c1`, the IC50 in assay [1] was found to be 7.27 µM.

As to `CCCc1cc2c(cc1OCc1ccsc1S(=O)(=O)Nc1onc(C)c1Br)OCO2`, the IC50 is 0.134 µM on Endothelin-1 receptor and 1.3 µM in assay [1].

In the case of `Cc1noc(NS(=O)(=O)c2ccsc2COc2cc3c(cc2Cl)OCO3)c1Br`, the IC50 at Endothelin-1 receptor came to 0.129 µM; in assay [1], 0.765 µM.

With `Cc1noc(NS(=O)(=O)c2ccsc2COc2ccc3c(c2)OCO3)c1Br`, the values for the IC50 (at Endothelin-1 receptor; in assay [1]) were 0.299 µM and 5.93 µM, respectively.

`Cc1cc(C)c(OCc2sccc2S(=O)(=O)Nc2onc(C)c2Br)c(C)c1`: the half-maximal inhibitory concentration (IC50) worked out at 0.062 µM on Endothelin-1 receptor and 3.07 µM in assay [1].

`Cc1cc(C)c(OCc2ccsc2S(=O)(=O)Nc2onc(C)c2Br)c(C)c1`: the IC50 at Endothelin-1 receptor came to 0.054 µM; in assay [1] it was 4.28 µM.

Broadly, the IC50 is the concentration that gives 50% inhibition. A high value points to lower potency.
